# Results reported in ChEMBL document CHEMBL3046257, “Response of sweet maize (Zea mays L.) hybrids to halosulfuron” (Crop Prot, 2008).
# Legend:
# Type in all cases: organism-based
# [1] = tested on: Zea mays; assay: Toxicity in Zea mays GH2684 (maize) assessed as visible injury at 25 g ai/ha applied shortly post-emergence at three to five-leaf stage using backpack sprayer measured after 28 days; conditions: in vivo, other, 672 h
# [2] = tested on: Zea mays; assay: Toxicity in Zea mays GH2298 (maize) assessed as plant height at 50 g ai/ha applied shortly post-emergence at three to five-leaf stage using backpack sprayer measured after 21 days (Rvb =80 cm); conditions: in vivo, other, 504 h
# [3] = tested on: Zea mays; assay: Toxicity in Zea mays GH2041 (maize) assessed as marketable yield at 50 g ai/ha applied shortly post-emergence at three to five-leaf stage using backpack sprayer (reference value: 12.2 T/ha ); conditions: in vivo, other
# [4] = tested on: Zea mays; assay: Toxicity in Zea mays GH2041 (maize) assessed as visible injury at 50 g ai/ha applied shortly post-emergence at three to five-leaf stage using backpack sprayer measured after 14 days; conditions: in vivo, other, 336 h
# [5] = tested on: Zea mays; assay: Toxicity in Zea mays GG214 (maize) assessed as plant height at 50 g ai/ha applied shortly post-emergence at three to five-leaf stage using backpack sprayer measured after 21 days (Rvb =81 cm); conditions: in vivo, other, 504 h
# [6] = tested on: Zea mays; assay: Toxicity in Zea mays GG214 (maize) assessed as marketable yield at 50 g ai/ha applied shortly post-emergence at three to five-leaf stage using backpack sprayer (reference value: 14.2 T/ha ); conditions: in vivo, other
# [7] = tested on: Zea mays; assay: Toxicity in Zea mays GH2684 (maize) assessed as visible injury at 50 g ai/ha applied shortly post-emergence at three to five-leaf stage using backpack sprayer measured after 14 days; conditions: in vivo, other, 336 h
# [8] = tested on: Zea mays; assay: Toxicity in Zea mays GH2684 (maize) assessed as plant height at 25 g ai/ha applied shortly post-emergence at three to five-leaf stage using backpack sprayer measured after 21 days (Rvb =73 cm); conditions: in vivo, other, 504 h
# [9] = tested on: Zea mays; assay: Toxicity in Zea mays GH2547 (maize) assessed as visible injury at 50 g ai/ha applied shortly post-emergence at three to five-leaf stage using backpack sprayer measured after 7 days; conditions: in vivo, other, 168 h
# [10] = tested on: Zea mays; assay: Toxicity in Zea mays Empire (maize) assessed as reduction in marketable yield at 50 g ai/ha applied shortly post-emergence at three to five-leaf stage using backpack sprayer; set-up: scale not given: the % may be the effect or the level left; conditions: in vivo, other
# [11] = tested on: Zea mays; assay: Toxicity in Zea mays GG214 (maize) assessed as visible injury at 50 g ai/ha applied shortly post-emergence at three to five-leaf stage using backpack sprayer measured after 7 days; conditions: in vivo, other, 168 h
# [12] = tested on: Zea mays; assay: Toxicity in Zea mays GH2684 (maize) assessed as cob size at 50 g ai/ha applied shortly post-emergence at three to five-leaf stage using backpack sprayer (reference value: 340 g); conditions: in vivo, other
# [13] = tested on: Zea mays; assay: Toxicity in Zea mays GH2547 (maize) assessed as visible injury at 50 g ai/ha applied shortly post-emergence at three to five-leaf stage using backpack sprayer measured after 14 days; conditions: in vivo, other, 336 h
# [14] = tested on: Zea mays; assay: Toxicity in Zea mays Empire (maize) assessed as visible injury at 50 g ai/ha applied shortly post-emergence at three to five-leaf stage using backpack sprayer measured after 28 days; conditions: in vivo, other, 672 h
# [15] = tested on: Zea mays; assay: Toxicity in Zea mays Empire (maize) assessed as plant height at 50 g ai/ha applied shortly post-emergence at three to five-leaf stage using backpack sprayer measured after 21 days (Rvb =73 cm); conditions: in vivo, other, 504 h
# [16] = tested on: Zea mays; assay: Toxicity in Zea mays GH2298 (maize) assessed as cob size at 50 g ai/ha applied shortly post-emergence at three to five-leaf stage using backpack sprayer (reference value: 307 g); conditions: in vivo, other
# [17] = tested on: Zea mays; assay: Toxicity in Zea mays Empire (maize) assessed as reduction in marketable yield at 25 g ai/ha applied shortly post-emergence at three to five-leaf stage using backpack sprayer; set-up: scale not given: the % may be the effect or the level left; conditions: in vivo, other
# [18] = tested on: Zea mays; assay: Toxicity in Zea mays Empire (maize) assessed as cob size at 50 g ai/ha applied shortly post-emergence at three to five-leaf stage using backpack sprayer (reference value: 304 g); conditions: in vivo, other
# [19] = tested on: Zea mays; assay: Toxicity in Zea mays GH2298 (maize) assessed as visible injury at 25 g ai/ha applied shortly post-emergence at three to five-leaf stage using backpack sprayer measured after 7 days; conditions: in vivo, other, 168 h
# [20] = tested on: Zea mays; assay: Toxicity in Zea mays GH2684 (maize) assessed as plant height at 50 g ai/ha applied shortly post-emergence at three to five-leaf stage using backpack sprayer measured after 21 days (Rvb =73 cm); conditions: in vivo, other, 504 h
# [21] = tested on: Zea mays; assay: Toxicity in Zea mays GH2547 (maize) assessed as visible injury at 50 g ai/ha applied shortly post-emergence at three to five-leaf stage using backpack sprayer measured after 28 days; conditions: in vivo, other, 672 h
# [22] = tested on: Zea mays; assay: Toxicity in Zea mays GG214 (maize) assessed as cob size at 25 g ai/ha applied shortly post-emergence at three to five-leaf stage using backpack sprayer (reference value: 292 g); conditions: in vivo, other
# [23] = tested on: Zea mays; assay: Toxicity in Zea mays GG446 (maize) assessed as plant height at 25 g ai/ha applied shortly post-emergence at three to five-leaf stage using backpack sprayer measured after 21 days (reference value: 85 cm); conditions: in vivo, other, 504 h
# [24] = tested on: Zea mays; assay: Toxicity in Zea mays GH2547 (maize) assessed as cob size at 25 g ai/ha applied shortly post-emergence at three to five-leaf stage using backpack sprayer (reference value: 315 g); conditions: in vivo, other
# [25] = tested on: Zea mays; assay: Toxicity in Zea mays GG214 (maize) assessed as visible injury at 25 g ai/ha applied shortly post-emergence at three to five-leaf stage using backpack sprayer measured after 28 days; conditions: in vivo, other, 672 h
# [26] = tested on: Zea mays; assay: Toxicity in Zea mays Empire (maize) assessed as visible injury at 25 g ai/ha applied shortly post-emergence at three to five-leaf stage using backpack sprayer measured after 28 days; conditions: in vivo, other, 672 h
# [27] = tested on: Zea mays; assay: Toxicity in Zea mays GH2684 (maize) assessed as marketable yield at 50 g ai/ha applied shortly post-emergence at three to five-leaf stage using backpack sprayer (reference value: 15.5 T/ha ); conditions: in vivo, other
# [28] = tested on: Zea mays; assay: Toxicity in Zea mays GH2547 (maize) assessed as visible injury at 25 g ai/ha applied shortly post-emergence at three to five-leaf stage using backpack sprayer measured after 14 days; conditions: in vivo, other, 336 h
# [29] = tested on: Zea mays; assay: Toxicity in Zea mays GH2684 (maize) assessed as marketable yield at 25 g ai/ha applied shortly post-emergence at three to five-leaf stage using backpack sprayer (reference value: 15.5 T/ha ); conditions: in vivo, other
# [30] = tested on: Zea mays; assay: Toxicity in Zea mays GSS9299 (maize) assessed as plant height at 25 g ai/ha applied shortly post-emergence at three to five-leaf stage using backpack sprayer measured after 21 days (Rvb =69 cm); conditions: in vivo, other, 504 h
compound,measurement,setting,value
COc1cc(OC)nc(NC(=O)NS(=O)(=O)c2c(C(=O)O)c(Cl)nn2C)n1 [HALOSULFURON],Activity,[1],0%
same,Activity,[2],76 cm
same,Crop_yield,[3],11.3 tons/ha
same,Activity,[4],2%
same,Activity,[5],75 cm
same,Crop_yield,[6],13.3 tons/ha
same,Activity,[7],5%
same,Activity,[8],76 cm
same,Activity,[9],2%
same,Activity,[10],21%
same,Activity,[11],3%
same,Activity,[12],321 g
same,Activity,[13],0%
same,Activity,[14],1%
same,Activity,[15],69 cm
same,Activity,[16],308 g
same,Activity,[17],14%
same,Activity,[18],289 g
same,Activity,[19],3%
same,Activity,[20],73 cm
same,Activity,[21],0%
same,Activity,[22],293 g
same,Activity,[23],81 cm
same,Activity,[24],310 g
same,Activity,[25],0%
same,Activity,[26],0%
same,Crop_yield,[27],15.2 tons/ha
same,Activity,[28],0%
same,Crop_yield,[29],15.5 tons/ha
same,Activity,[30],68 cm
